Experimental data reported in patent US8680052B1, “Methods of treating, reducing the incidence of, and/or preventing ischemic events” (The Medicines Company, priority 2013, dated 2014).
Read-outs that look alike come from different tables or passages of the source.

Test system: patients with acute coronary syndromes undergoing PCI
Settings: for All-cause mortality OR (95% CI) / IDR OR (95% CI) / MI OR (95% CI) / Mortality/MI/IDR OR (95% CI) / Mortality/Q-wave MI/IDR OR (95% CI) / Mortality/Q-wave MI/Stent thrombosis OR (95% CI) / Stent thrombosis OR (95% CI) / Q-wave MI OR (95% CI) / Stroke OR (95% CI): Cangrelor vs Clopidogrel
[1] = 48-hour, MITT Without STEMI, cangrelor vs clopidogrel
[2] = 48-hour, MITT Without STEMI, exploratory

SMILES: CSCCNc1nc(SCCC(F)(F)F)nc2c1ncn2[C@@H]1O[C@H](COP(=O)(O)OP(=O)(O)C(Cl)(Cl)P(=O)(O)O)[C@@H](O)[C@H]1O [Cangrelor, cangrelor]
- All-cause mortality (48-hour, MITT Without STEMI): 8 (0.2)
- IDR (48-hour, MITT Without STEMI): 13 (0.3)
- MI (48-hour, MITT Without STEMI): 278 (7.1)
- Mortality/MI/IDR (primary endpoint) (48-hour, MITT Without STEMI): 290 (7.5)
- Q-wave MI (48-hour, MITT Without STEMI): 4 (0.1)
- Stent thrombosis (48-hour, MITT Without STEMI): 7 (0.2)
- Stroke (48-hour, MITT Without STEMI): 6 (0.2)
- OR (95% CI): All-cause mortality [1]: 1.59 (0.52, 4.87)
- OR (95% CI): IDR [1]: 0.56 (0.28, 1.11)
- OR (95% CI): MI [1]: 1.09 (0.91, 1.29)
- OR (95% CI): Mortality/Q-wave MI/IDR [1]: 0.67 (0.39, 1.14)
- OR (95% CI): Mortality/Q-wave MI/Stent thrombosis [1]: 0.78 (0.42, 1.44)
- OR (95% CI): Q-wave MI [1]: 0.40 (0.12, 1.27)
- OR (95% CI): Stent thrombosis [1]: 0.63 (0.25, 1.63)
- OR (95% CI): Stroke [1]: 0.85 (0.29, 2.54)
- Mortality/Q-wave MI/IDR [2]: 23 (0.6)
- Mortality/Q-wave MI/Stent thrombosis [2]: 18 (0.5)
- All-cause mortality (48 hours, ITT): 9 (0.2) no. (%)
- IDR (48 hours, ITT): 21 (0.5) no. (%)
- MI (48 hours, ITT): 294 (6.7) no. (%)
- Mortality/MI/IDR (48 hours, ITT): 312 (7.1) no. (%)
- Mortality/Q-wave MI/IDR (48 hours, ITT): 32 (0.7) no. (%)
- Mortality/Q-wave MI/Stent thrombosis (48 hours, ITT): 23 (0.5) no. (%)
- Q-wave MI (48 hours, ITT): 4 (0.1) no. (%)
- Stent thrombosis (48 hours, ITT): 11 (0.2) no. (%)
- Stroke (48 hours, ITT): 6 (0.1) no. (%)
- All-cause mortality (48 hours, ITT With STEMI): 1 (0.2) no. (%)
- IDR (48 hours, ITT With STEMI): 6 (1.2) no. (%)
- MI (48 hours, ITT With STEMI): 16 (3.3) no. (%)
- Mortality/MI/IDR (48 hours, ITT With STEMI): 20 (4.1) no. (%)
- Mortality/Q-wave MI/IDR (48 hours, ITT With STEMI): 7 (1.5) no. (%)
- Mortality/Q-wave MI/Stent thrombosis (48 hours, ITT With STEMI): 5 (1.0) no. (%)
- Q-wave MI (48 hours, ITT With STEMI): 0 (0.0) no. (%)
- Stent thrombosis (48 hours, ITT With STEMI): 4 (0.8) no. (%)
- Stroke (48 hours, ITT With STEMI): 0 (0.0) no. (%)
- All-cause mortality OR (95% CI) (48 hours, ITT With STEMI): 0.209 (0.024, 1.793)
- IDR OR (95% CI) (48 hours, ITT With STEMI): 0.786 (0.271, 2.283)
- MI OR (95% CI) (48 hours, ITT With STEMI): 1.900 (0.831, 4.341)
- Mortality/MI/IDR OR (95% CI) (48 hours, ITT With STEMI): 1.054 (0.560, 1.985)
- Mortality/Q-wave MI/IDR OR (95% CI) (48 hours, ITT With STEMI): 0.560 (0.222, 1.416)
- Mortality/Q-wave MI/Stent thrombosis OR (95% CI) (48 hours, ITT With STEMI): 0.580 (0.193, 1.743)
- Stent thrombosis OR (95% CI) (48 hours, ITT With STEMI): 1.052 (0.262, 4.321)
- All-cause mortality (48 hours, ITT Without STEMI): 8 (0.2) no. (%)
- IDR (48 hours, ITT Without STEMI): 15 (0.4) no. (%)
- MI (48 hours, ITT Without STEMI): 278 (7.1) no. (%)
- Mortality/MI/IDR (48 hours, ITT Without STEMI): 292 (7.4) no. (%)
- Mortality/Q-wave MI/IDR (48 hours, ITT Without STEMI): 25 (0.6) no. (%)
- Mortality/Q-wave MI/Stent thrombosis (48 hours, ITT Without STEMI): 18 (0.5) no. (%)
- Q-wave MI (48 hours, ITT Without STEMI): 4 (0.1) no. (%)
- Stent thrombosis (48 hours, ITT Without STEMI): 7 (0.2) no. (%)
- Stroke (48 hours, ITT Without STEMI): 6 (0.2) no. (%)
- All-cause mortality OR (95% CI) (48 hours, ITT Without STEMI): 1.331 (0.461, 3.839)
- IDR OR (95% CI) (48 hours, ITT Without STEMI): 0.649 (0.338, 1.246)
- MI OR (95% CI) (48 hours, ITT Without STEMI): 1.090 (0.914, 1.299)
- Mortality/MI/IDR OR (95% CI) (48 hours, ITT Without STEMI): 1.056 (0.890, 1.252)
- Mortality/Q-wave MI/IDR OR (95% CI) (48 hours, ITT Without STEMI): 0.711 (0.425, 1.190)
- Mortality/Q-wave MI/Stent thrombosis OR (95% CI) (48 hours, ITT Without STEMI): 0.747 (0.405, 1.379)
- Q-wave MI OR (95% CI) (48 hours, ITT Without STEMI): 0.398 (0.125, 1.272)
- Stent thrombosis OR (95% CI) (48 hours, ITT Without STEMI): 0.634 (0.246, 1.638)
- Stroke OR (95% CI) (48 hours, ITT Without STEMI): 0.855 (0.287, 2.546)
- All-cause mortality OR (95% CI) (48 hours, ITT): 0.821 (0.340, 1.983)
- IDR OR (95% CI) (48 hours, ITT): 0.678 (0.389, 1.182)
- MI OR (95% CI) (48 hours, ITT): 1.122 (0.945, 1.331)
- Mortality/MI/IDR OR (95% CI) (48 hours, ITT): 1.058 (0.898, 1.248)
- Mortality/Q-wave MI/IDR OR (95% CI) (48 hours, ITT): 0.667 (0.425, 1.045)
- Mortality/Q-wave MI/Stent thrombosis OR (95% CI) (48 hours, ITT): 0.698 (0.409, 1.191)
- Q-wave MI OR (95% CI) (48 hours, ITT): 0.401 (0.126, 1.279)
- Stent thrombosis OR (95% CI) (48 hours, ITT): 0.735 (0.337, 1.603)
- Stroke OR (95% CI) (48 hours, ITT): 0.752 (0.261, 2.170)
